Assay results from the Deep4Chem optical property database.
Several values for one entry are separate records, joined by “and”; a condition that tells them apart may be missing. Equal entries are not always repeated.

Assay: solvent given as SMILES

O=P1(c2ccccc2)C2=C(c3ccccc31)[Si](c1ccccc1)(c1ccccc1)c1cc(N(c3ccccc3)c3ccccc3)ccc12 (centres undefined)
absorption maximum (in CC#N): 456 nm
absorption maximum (in CO): 466 nm
absorption maximum (in Cc1ccccc1): 459 nm

CNc1cc2nc3cc(Br)c(Br)cc3nc2cc1NC
absorption maximum (in CCO): 443 nm

O=C(c1ccc(N2c3ccccc3Oc3ccccc32)cc1)c1cccc(C(=O)c2ccc(N3c4ccccc4Oc4ccccc43)cc2)c1
absorption maximum (in Cc1ccccc1): 416 nm

C(=C\c1cnccn1)/c1ccc(N(c2ccccc2)c2ccc(/C=C/c3cnccn3)cc2)cc1
absorption maximum (in ClCCl): 420 nm

COc1ccc(C#Cc2nc3ccccc3nc2-c2cn(C)c3ccccc23)cc1
absorption maximum (in C1CCOC1): 408 nm
absorption maximum (in CC#N): 407 nm
absorption maximum (in CC(C)=O): 408 nm
absorption maximum (in CC(C)O): 415 nm
absorption maximum (in CCO): 415 nm
absorption maximum (in CCOC(C)=O): 405 nm
absorption maximum (in CO): 415 nm
absorption maximum (in Cc1ccccc1): 407 nm
absorption maximum (in ClCCl): 408 nm

Cc1c2c(c(C)c3ccccc13)-c1cc3nc4ccccc4nc3cc1-2
absorption maximum (in ClC(Cl)Cl): 448 nm

CCN(CC)c1ccc2cc(-c3cn4cc(OC)ccc4n3)c(=O)oc2c1
absorption maximum (in ClC(Cl)Cl): 434 nm

c1ccc(C2CSC(c3c4ccc(=[N+]5CCCCC5)cc-4oc4cc(N5CCCCC5)ccc34)SC2)cc1 (centres undefined)
absorption maximum (in CO): 584.58 nm

F[B-]1(F)n2cccc2C(c2c3ccccc3cc3ccccc23)=C2C=CC=[N+]21
absorption maximum (in CC#N): 502 nm
absorption maximum (in CCCCCC): 505 nm
absorption maximum (in CCO): 503 nm
absorption maximum (in CN(C)C=O): 506 nm
absorption maximum (in Cc1ccccc1): 508 nm
absorption maximum (in ClCCl): 506 nm

O=C1c2ccc3c4ccc5c6c(ccc(c7ccc(c2c37)C(=O)N1c1ccc(O)cc1)c64)C(=O)N(c1ccc(O)cc1)C5=O
absorption maximum (in C1CCOC1): 519 nm
absorption maximum (in CN1CCCC1=O): 525 nm
absorption maximum (in CN(C)C=O): 522 nm and 524 nm

COc1ccc2c(c1)c1cc(OC)ccc1n2-c1nc2ccccc2nc1-n1c2ccc(OC)cc2c2cc(OC)ccc21
absorption maximum (in Cc1ccccc1): 437 nm

Cc1csc2[n+]1[B-](F)(F)n1c(c3cccc4cccc1c43)=N2
absorption maximum (in C1CCOC1): 476 nm
absorption maximum (in CC#N): 470 nm
absorption maximum (in CCCCCC): 477 nm
absorption maximum (in Cc1ccccc1): 479 nm
absorption maximum (in ClCCl): 445 nm

Cn1c(=O)cc(C(=O)c2ccccc2)c2sc(-c3ccc(N(c4ccccc4)c4ccccc4)cc3)cc21
absorption maximum (in CC#N): 430 nm
absorption maximum (in ClCCl): 438 nm

CN(C)c1ccc(C(=O)Nc2ccc(F)cc2)cc1
absorption maximum (in C1CCCCC1): 307 nm
absorption maximum (in C1CCOC1): 311 nm
absorption maximum (in CC#N): 314 nm
absorption maximum (in CCOCC): 307 nm

C[Si](C)(C)c1cc2c(cc3ccc4cccc5ccc2c3c45)[nH]1
absorption maximum (in CCOC(C)=O): 392 nm

CC[Si](C#Cc1c2c(=O)c3ccccc3c2c(C#C[Si](CC)(CC)CC)c2c(=O)c3ccccc3c12)(CC)CC
absorption maximum (in ClC(Cl)Cl): 522 nm

Oc1ccccc1-c1nc(-c2ccccc2)c2ccccn12
absorption maximum (in C1CCCCC1): 340 nm
absorption maximum (in CC#N): 343 nm
absorption maximum (in CO): 299 nm
absorption maximum (in ClCCl): 345 nm
absorption maximum (in O): 299 nm

CCOC(=O)C(C(=O)OCC)C1=[N+]2C(=C(c3ccc(C)cc3)c3ccc(Cl)n3[B-]2(F)F)C=C1
absorption maximum (in C1CCCCC1): 514 nm
absorption maximum (in C1CCOC1): 511 nm
absorption maximum (in CCOC(C)=O): 509 nm
absorption maximum (in CO): 508 nm
absorption maximum (in Cc1ccccc1): 515 nm
absorption maximum (in ClC(Cl)Cl): 513 nm

CCCCCCC(CCCCCC)N1C(=O)c2cccc3c(-c4ccc(OC)c5cccc(C)c45)ccc(c23)C1=O
absorption maximum (in CCCCCC): 326.6 nm
absorption maximum (in CCCCCCCCCCCCCC): 327 nm
absorption maximum (in CCCCCCCCCCCO): 329 nm
absorption maximum (in CCCCO): 327.8 nm
absorption maximum (in CN(C)C=O): 328.8 nm
absorption maximum (in Cc1ccccc1): 328.8 nm
absorption maximum (in ClC(Cl)Cl): 329 nm

CCOC(=O)CCCCCn1c2ccc(N)cc2c(=O)c2cc3c(cc21)c(=O)c1cc(N)ccc1n3CCCCCC(=O)OCC
absorption maximum (in ClCCl): 574 nm

Cc1c2c(nc3ccccc13)-c1cc3c(cc1CC2)-c1nc2ccccc2c(C)c1CC3
absorption maximum (in ClC(Cl)Cl): 372 nm

O=C1O/C(=C2/C(=O)Oc3ccccc32)C(O)=C1c1ccccc1
absorption maximum (in ClC(Cl)Cl): 388 nm

CCn1c2ccc(/C=C/c3ccc4c(c3)c3cc(-c5nc6ccccc6s5)ccc3n4CC)cc2c2cc(-c3nc4ccccc4s3)ccc21
absorption maximum (in C1CCOC1): 361 nm
absorption maximum (in CCOC(C)=O): 360 nm

CN(C)c1ccc(-c2c(/C=C3/C=Cc4ccccc4N3Cc3ccccc3)c(=O)c2=O)cc1
absorption maximum (in C1CCCCC1): 358 nm
absorption maximum (in Cc1ccccc1): 364 nm
absorption maximum (in ClCCl): 511 nm

COc1cc2c(cc1C=C(C#N)C#N)c1ccccc1n2C
absorption maximum (in C1CCOC1): 423 nm
absorption maximum (in CC#N): 422 nm
absorption maximum (in CCOC(C)=O): 420 nm
absorption maximum (in CN(C)C=O): 428 nm
absorption maximum (in CO): 425 nm
absorption maximum (in CS(C)=O): 427 nm
absorption maximum (in Cc1ccccc1): 425 nm
absorption maximum (in ClC(Cl)Cl): 430 nm
absorption maximum (in ClCCl): 427 nm

O=c1c2cc(F)c(O)cc2oc2cc(O)c(F)cc12
absorption maximum (in CCO): 369 nm

CC1(C)c2ccccc2N(c2ccccc2)c2ccc(-c3ccc(S(=O)(=O)c4ccc(-c5ccc6c(c5)C(C)(C)c5ccccc5N6c5ccccc5)cc4)cc3)cc21
absorption maximum (in Cc1ccccc1): 363.38 nm

Cc1cc(C)c2cc3cc(C)ncc3cc2c1
absorption maximum (in CCO): 386.1 nm

CCC1=C(C2=C(C3=C(CC)S(=O)(=O)c4cc(-c5ccccc5)ccc43)C(F)(F)C(F)(F)C2(F)F)c2ccc(-c3ccccc3)cc2S1(=O)=O
absorption maximum (in C1COCCO1): 336 nm

COC(=O)c1cc(=O)n(C)c2cc(-c3ccc(Oc4ccccc4)cc3)sc12
absorption maximum (in CC#N): 396 nm
absorption maximum (in ClCCl): 398 nm

CSc1sc(C(=O)c2ccccc2)c2nn[nH]c(=O)c12
absorption maximum (in C1CCOC1): 396.5 nm
absorption maximum (in CC#N): 396 nm
absorption maximum (in CCO): 400 nm
absorption maximum (in CN(C)C=O): 409 nm
absorption maximum (in CO): 400 nm
absorption maximum (in CS(C)=O): 405.5 nm

CN1C(=CC2=C(O)C(=O)C2=C2C(=O)c3ccccc3C2=O)C(C)(C)c2ccccc21
absorption maximum (in CCO): 492 nm

COC(=O)C(NC(=O)OC(C)(C)C)c1ccc2oc(-c3ccc(O)cc3O)nc2c1 (centres undefined)
absorption maximum (in CC1CCCCC1): 336 nm
absorption maximum (in CC#N): 320 nm
absorption maximum (in CO): 321 nm

Fc1ccc(/C=C/c2nc3c4ccccc4c4ccccc4c3o2)cc1
absorption maximum (in CC#N): 363 nm

CN(C)c1ccc(/C=C/c2nc3cc(Br)ccc3nc2-c2ccccc2)cc1
absorption maximum (in C1COCCO1): 445 nm
absorption maximum (in CC#N): 448 nm
absorption maximum (in ClCCl): 453 nm

COC(=O)c1cc(=O)n(C)c2cc(-c3ccccc3OC)sc12
absorption maximum (in CC#N): 396 nm
absorption maximum (in ClCCl): 398 nm

Nc1ccccc1/C=C/C(F)(F)F
absorption maximum (in C1CCOC1): 347 nm

CCCCc1ccc(-n2c3c4ccc(C(F)(F)F)cc4nnc3c3c2c2nnc4cc(C(F)(F)F)ccc4c2n3-c2ccc(CCCC)cc2)cc1
absorption maximum (in Cc1ccccc1): 322 nm

COc1ccc(C2=C3C=C(/C=C/C(=O)OC(C)(C)C)C=[N+]3[B-](F)(F)n3cccc32)cc1
absorption maximum (in ClCCl): 536 nm

COc1cc(-c2cc(N3CCCCC3)c(C#N)c3c2-c2cccc4cccc-3c24)cc(OC)c1OC
absorption maximum (in O): 430 nm

COc1ccccc1C1=[N+]2C(=C(c3ccccc3)c3c4c(c(-c5ccccc5OC)n3[B-]2(F)F)C2C=CC4CC2)C2=C1C1C=CC2CC1 (centres undefined)
absorption maximum (in ClCCl): 556 nm

N#CC1=C(c2ccc(-c3cccs3)s2)CC1
absorption maximum (in C1CCOC1): 366 nm
absorption maximum (in CC#N): 364 nm
absorption maximum (in CCCCCC): 361 nm
absorption maximum (in CCO): 367 nm
absorption maximum (in OCCOCCO): 371 nm
absorption maximum (in c1ccncc1): 372 nm

COc1cccc(-c2nc(-c3ccccc3)c(-c3ccccc3)[nH]2)c1
absorption maximum (in CO): 300 nm

CCN(CC)c1ccc2c(-c3ccccc3C(=O)O)c3c([o+]c2c1)/C(=C/c1ccc(N(C)C)cc1)CCC3
absorption maximum (in ClCCl): 689 nm

COC(=O)c1ccc2c3ccc(C(=O)OC)c4c(C(=O)OC)ccc(c5ccc(C(=O)OC)c1c25)c43
absorption maximum (in C1COCCO1): 470 nm
absorption maximum (in CC#N): 465 nm
absorption maximum (in CC(C)=O): 465 nm
absorption maximum (in CC(C)O): 476 nm
absorption maximum (in CCCCO): 476 nm
absorption maximum (in CN(C)C=O): 468 nm
absorption maximum (in CO): 465 nm
absorption maximum (in ClC(Cl)Cl): 469 nm

CCc1ccccc1-c1c2ccccc2c(C#Cc2ccccc2)c2cc3ccccc3cc12
absorption maximum (in ClCCl): 522 nm

COc1cc(OC)cc(C2=C3C(C)=C(I)C(C)=[N+]3[B-](F)(F)n3c(C)c(I)c(C)c32)c1
absorption maximum (in CS(C)=O): 538 nm

COc1cc2cc(-c3ccc(C(=O)OCOC(C)=O)cc3C(=O)OCOC(C)=O)oc2cc1N1CCOCCOCCN(c2cc3oc(-c4ccc(C(=O)OCOC(C)=O)cc4C(=O)OCOC(C)=O)cc3cc2OC)CCOCCOCC1
absorption maximum (in O): 350 nm

COc1ccc(C2=C3C(/C=C/c4cc(OC)c(OC)c(OC)c4)=C(C=O)C(/C=C/c4cc(OC)c(OC)c(OC)c4)=[N+]3[B-](F)(F)n3c(/C=C/c4cc(OC)c(OC)c(OC)c4)c(C=O)c(C=Cc4cc(OC)c(OC)c(OC)c4)c32)cc1
absorption maximum (in ClCCl): 688 nm

Cc1ccc(-n2c(-c3ccc(C(F)(F)F)cc3)nc(-c3ccccc3O)c2-c2ccccc2O)cc1
absorption maximum (in C1CCOC1): 314 nm
absorption maximum (in CC(C)O): 309 nm
absorption maximum (in CCCCCC): 314 nm
absorption maximum (in CO): 309 nm
absorption maximum (in CS(C)=O): 313 nm
absorption maximum (in ClCCl): 311 nm

CC1=[N+]2C(=C(c3ccccc3C)c3ccc(C)n3[B-]2(F)F)C=C1c1cc2n(c1)[B-](F)(F)[N+]1=CC=CC1=C2c1c(C)cc(C)cc1C
absorption maximum (in C1CCCCC1): 595 nm
absorption maximum (in CCOC(C)=O): 599 nm

Cc1ccc(/C=C/c2ccccc2-[n+]2noc([O-])c2C)cc1
absorption maximum (in C1CCCCC1): 314 nm
absorption maximum (in CC#N): 310 nm
absorption maximum (in CCO): 312 nm
